This passage reports IC50 results from US20240124427A1, “HYDROXYHETEROCYCLOALKANE-CARBAMOYL DERIVATIVES” (Idorsia Pharmaceuticals Ltd, priority 2021, published 2024).

As a reminder, the pIC50 is the IC50 on a negative log10 scale, so that one unit is a factor of ten.

pIC50: −log10 of the molar value.

human Gal-3 (hGal-3), sequence (P17931 whole entry): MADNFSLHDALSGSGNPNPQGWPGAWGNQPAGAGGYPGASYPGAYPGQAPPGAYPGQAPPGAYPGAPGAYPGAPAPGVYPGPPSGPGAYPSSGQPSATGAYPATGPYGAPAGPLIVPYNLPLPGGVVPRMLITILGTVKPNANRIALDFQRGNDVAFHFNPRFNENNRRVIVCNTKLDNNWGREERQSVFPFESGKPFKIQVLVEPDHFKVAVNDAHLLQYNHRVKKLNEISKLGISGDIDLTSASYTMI

The experiment has as its target human Gal-3 (hGal-3) (Homo sapiens (Human), UniProt P17931). Nature of the experiment: Competitive binding assay: biotinylated hGal-3 binding to microplate-adsorbed asialofetuin (ASF). As to conditions: Activity on hGal-3; mean values of several measurements; mixture of diastereomers measured where not separated. In short, it runs like this:
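Spectrophotometric read-out using streptavidin-peroxidase and ABTS quantifies how much biotin-hGal-3 remains bound to microplate asialofetuin after 3 h at 4 °C with compound present. Values are means of repeated IC50 determinations.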
Regarding `CO[C@@H]1[C@@H](n2cc(-c3cc(F)c(C)c(F)c3)nn2)[C@@H](O)[C@@H](CO)O[C@H]1C(=O)N(c1cc(Cl)cc(Cl)c1)[C@@H]1COC[C@H]1O` [Example 44, (2R,3R,4S,5R,6R)-N-(3,5-dichlorophenyl)-4-(4-(3,5-difluoro-4-methylphenyl)-1H-1,2,3-triazol-1-yl)-5-hydroxy-6-(hydroxymethyl)-N-((3R,4S)-4-hydroxytetrahydrofuran-3-yl)-3-methoxytetrahydro-2H-pyran-2-carboxamide], the pIC50 was 7.09.
Then `CO[C@@H]1[C@@H](n2cc(-c3cc(F)c(F)c(F)c3)nn2)[C@@H](O)[C@@H](CO)O[C@H]1C(=O)N(c1cc(Br)cc(C#N)c1)[C@H]1CCOC[C@@H]1O` [Example 101, (2R,3R,4S,5R,6R)-N-(3-bromo-5-cyanophenyl)-5-hydroxy-6-(hydroxymethyl)-N-((3R,4S)-3-hydroxytetrahydro-2H-pyran-4-yl)-3-methoxy-4-(4-(3,4,5-trifluorophenyl)-1H-1,2,3-triazol-1-yl)tetrahydro-2H-pyran-2-carboxamide], with 7.85; and `CO[C@@H]1[C@@H](n2cc(-c3cc(F)c(Cl)c(F)c3)nn2)[C@@H](O)[C@@H](CO)O[C@H]1C(=O)N(c1cc(C)cc(Br)c1)[C@H]1CN(C(C)=O)C[C@@H]1O` [Example 76, (2R,3R,4S,5R,6R)-N-((3S,4S)-1-acetyl-4-hydroxypyrrolidin-3-yl)-N-(3-bromo-5-methylphenyl)-4-(4-(4-chloro-3,5-difluorophenyl)-1H-1,2,3-triazol-1-yl)-5-hydroxy-6-(hydroxymethyl)-3-methoxytetrahydro-2H-pyran-2-carboxamide], with 7.43; and `CO[C@@H]1[C@@H](n2cc(-c3cc(F)c(F)c(F)c3)nn2)[C@@H](O)[C@@H](CO)O[C@H]1C(=O)N(c1cc(Cl)cc(Cl)c1)[C@@H]1COC[C@H]1O` [Example 33, (2R,3R,4S,5R,6R)-N-(3,5-dichlorophenyl)-5-hydroxy-6-(hydroxymethyl)-N-((3R,4S)-4-hydroxytetrahydrofuran-3-yl)-3-methoxy-4-(4-(3,4,5-trifluorophenyl)-1H-1,2,3-triazol-1-yl)tetrahydro-2H-pyran-2-carboxamide], with 6.98.
As to `CO[C@@H]1[C@@H](n2cc(-c3cc(F)c(F)c(F)c3)nn2)[C@@H](O)[C@@H](CO)O[C@H]1C(=O)N(c1cc(Cl)cc(Cl)c1)[C@H]1COCC[C@@H]1O` [Example 105, (2R,3R,4S,5R,6R)-N-(3,5-dichlorophenyl)-5-hydroxy-6-(hydroxymethyl)-N-((3S,4S)-4-hydroxytetrahydro-2H-pyran-3-yl)-3-methoxy-4-(4-(3,4,5-trifluorophenyl)-1H-1,2,3-triazol-1-yl)tetrahydro-2H-pyran-2-carboxamide], the negative logarithm of the IC50 (pIC50) is 7.74.
The value for `CO[C@@H]1[C@@H](n2cc(-c3cc(F)c(F)c(F)c3)nn2)[C@@H](O)[C@@H](CO)O[C@H]1C(=O)N(c1cc(F)cc(C#N)c1)[C@@H]1COC[C@H]1O` [Example 40, (2R,3R,4S,5R,6R)-N-(3-cyano-5-fluorophenyl)-5-hydroxy-6-(hydroxymethyl)-N-((3R,4S)-4-hydroxytetrahydrofuran-3-yl)-3-methoxy-4-(4-(3,4,5-trifluorophenyl)-1H-1,2,3-triazol-1-yl)tetrahydro-2H-pyran-2-carboxamide] was 6.84; that for `CO[C@@H]1[C@@H](n2cc(-c3cc(F)c(C)c(F)c3)nn2)[C@@H](O)[C@@H](CO)O[C@H]1C(=O)N(c1cc(C)cc(Br)c1)[C@H]1COC[C@@H]1O` [Example 18, (2R,3R,4S,5R,6R)-N-(3-bromo-5-methylphenyl)-4-(4-(3,5-difluoro-4-methylphenyl)-1H-1,2,3-triazol-1-yl)-5-hydroxy-6-(hydroxymethyl)-N-((3S,4R)-4-hydroxytetrahydrofuran-3-yl)-3-methoxytetrahydro-2H-pyran-2-carboxamide] was 7.16; that for `CO[C@@H]1[C@@H](n2cc(-c3cc(F)c(F)c(F)c3)nn2)[C@@H](O)[C@@H](CO)O[C@H]1C(=O)N(c1cccc(Cl)c1)[C@@H]1COC[C@H]1O` [Example 30, (2R,3R,4S,5R,6R)-N-(3-chlorophenyl)-5-hydroxy-6-(hydroxymethyl)-N-((3R,4S)-4-hydroxytetrahydrofuran-3-yl)-3-methoxy-4-(4-(3,4,5-trifluorophenyl)-1H-1,2,3-triazol-1-yl)tetrahydro-2H-pyran-2-carboxamide] was 6.63.
On to `CO[C@@H]1[C@@H](n2cc(-c3cc(F)c(F)c(F)c3)nn2)[C@@H](O)[C@@H](CO)O[C@H]1C(=O)N(c1cc(C)cc(Br)c1)[C@@H]1CN(C=O)C[C@H]1O` [Example 94, (2R,3R,4S,5R,6R)-N-(3-bromo-5-methylphenyl)-N-((3R,4R)-1-formyl-4-hydroxypyrrolidin-3-yl)-5-hydroxy-6-(hydroxymethyl)-3-methoxy-4-(4-(3,4,5-trifluorophenyl)-1H-1,2,3-triazol-1-yl)tetrahydro-2H-pyran-2-carboxamide], for which the pIC50 was 7.07.
The value for `CO[C@@H]1[C@@H](n2cc(-c3cc(F)c(F)c(F)c3)nn2)[C@@H](O)[C@@H](CO)O[C@H]1C(=O)N(c1cc(Cl)cc(C#N)c1)[C@H]1CCOC[C@@H]1O` [Example 100, (2R,3R,4S,5R,6R)-N-(3-chloro-5-cyanophenyl)-5-hydroxy-6-(hydroxymethyl)-N-((3R,4S)-3-hydroxytetrahydro-2H-pyran-4-yl)-3-methoxy-4-(4-(3,4,5-trifluorophenyl)-1H-1,2,3-triazol-1-yl)tetrahydro-2H-pyran-2-carboxamide] was 7.80; that for `CO[C@@H]1[C@@H](n2cc(-c3ccc(Br)c(F)c3F)nn2)[C@@H](O)[C@@H](CO)O[C@H]1C(=O)N(c1cc(Cl)cc(Cl)c1)[C@@H]1CN(C(C)=O)C[C@H]1O` [Example 80, (2R,3R,4S,5R,6R)-N-((3R,4R)-1-acetyl-4-hydroxypyrrolidin-3-yl)-4-(4-(4-bromo-2,3-difluorophenyl)-1H-1,2,3-triazol-1-yl)-N-(3,5-dichlorophenyl)-5-hydroxy-6-(hydroxymethyl)-3-methoxytetrahydro-2H-pyran-2-carboxamide] was 7.51.
For `CO[C@@H]1[C@@H](n2cc(-c3ccc(Cl)c(Cl)c3)nn2)[C@@H](O)[C@@H](CO)O[C@H]1C(=O)N(c1cc(Cl)cc(Cl)c1)[C@H]1COC[C@@H]1O` [Example 26, (2R,3R,4S,5R,6R)-N-(3,5-dichlorophenyl)-4-(4-(3,4-dichlorophenyl)-1H-1,2,3-triazol-1-yl)-5-hydroxy-6-(hydroxymethyl)-N-((3S,4R)-4-hydroxytetrahydrofuran-3-yl)-3-methoxytetrahydro-2H-pyran-2-carboxamide], the pIC50 was 6.79.
`CO[C@@H]1[C@@H](n2cc(-c3cc(F)c(F)c(F)c3)nn2)[C@@H](O)[C@@H](CO)O[C@H]1C(=O)N(c1cc(C)cc(Br)c1)[C@H]1CN(C(C)=O)C[C@@H]1O` [Example 72, (2R,3R,4S,5R,6R)-N-((3S,4S)-1-acetyl-4-hydroxypyrrolidin-3-yl)-N-(3-bromo-5-methylphenyl)-5-hydroxy-6-(hydroxymethyl)-3-methoxy-4-(4-(3,4,5-trifluorophenyl)-1H-1,2,3-triazol-1-yl)tetrahydro-2H-pyran-2-carboxamide]: the pIC50 is 7.59.
Turning to `CO[C@@H]1[C@@H](n2cc(-c3ccc(Cl)c(Cl)c3)nn2)[C@@H](O)[C@@H](CO)O[C@H]1C(=O)N(c1cc(C)cc(Br)c1)[C@H]1COC[C@@H]1O` [Example 29, (2R,3R,4S,5R,6R)-N-(3-bromo-5-methylphenyl)-4-(4-(3,4-dichlorophenyl)-1H-1,2,3-triazol-1-yl)-5-hydroxy-6-(hydroxymethyl)-N-((3S,4R)-4-hydroxytetrahydrofuran-3-yl)-3-methoxytetrahydro-2H-pyran-2-carboxamide], the pIC50 is 6.82.
Then `CO[C@@H]1[C@@H](n2cc(-c3ccc(C)c(F)c3F)nn2)[C@@H](O)[C@@H](CO)O[C@H]1C(=O)N(c1cc(Br)cc(C#N)c1)[C@H]1COC[C@@H]1O` [Example 20, (2R,3R,4S,5R,6R)-N-(3-bromo-5-cyanophenyl)-4-(4-(2,3-difluoro-4-methylphenyl)-1H-1,2,3-triazol-1-yl)-5-hydroxy-6-(hydroxymethyl)-N-((3S,4R)-4-hydroxytetrahydrofuran-3-yl)-3-methoxytetrahydro-2H-pyran-2-carboxamide], with 7.51; and `CO[C@@H]1[C@@H](n2cc(-c3cc(F)c(Cl)c(F)c3)nn2)[C@@H](O)[C@@H](CO)O[C@H]1C(=O)N(c1cc(Br)cc(Br)c1)[C@@H]1COC[C@H]1O` [Example 52, (2R,3R,4S,5R,6R)-4-(4-(4-chloro-3,5-difluorophenyl)-1H-1,2,3-triazol-1-yl)-N-(3,5-dibromophenyl)-5-hydroxy-6-(hydroxymethyl)-N-((3R,4S)-4-hydroxytetrahydrofuran-3-yl)-3-methoxytetrahydro-2H-pyran-2-carboxamide], with 7.07.
Then `CO[C@@H]1[C@@H](n2cc(-c3cc(F)c(F)c(F)c3)nn2)[C@@H](O)[C@@H](CO)O[C@H]1C(=O)N(c1cc(C)cc(Br)c1)[C@H]1COC[C@@H]1O` [Example 8, (2R,3R,4S,5R,6R)-N-(3-bromo-5-methylphenyl)-5-hydroxy-6-(hydroxymethyl)-N-((3S,4R)-4-hydroxytetrahydrofuran-3-yl)-3-methoxy-4-(4-(3,4,5-trifluorophenyl)-1H-1,2,3-triazol-1-yl)tetrahydro-2H-pyran-2-carboxamide], with 7.11; and `CO[C@@H]1[C@@H](n2cc(-c3ccc(Cl)c(Cl)c3)nn2)[C@@H](O)[C@@H](CO)O[C@H]1C(=O)N(c1cc(Cl)cc(Cl)c1)[C@@H]1COC[C@H]1O` [Example 55, (2R,3R,4S,5R,6R)-N-(3,5-dichlorophenyl)-4-(4-(3,4-dichlorophenyl)-1H-1,2,3-triazol-1-yl)-5-hydroxy-6-(hydroxymethyl)-N-((3R,4S)-4-hydroxytetrahydrofuran-3-yl)-3-methoxytetrahydro-2H-pyran-2-carboxamide], with 6.79.
